Consider eleven molecules from ChEMBL document CHEMBL1201862, “PubChem BioAssay data set” (2004).

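Five concentrations, 48 hours, 96-well plates. At the GI50, growth is halved.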 The source made the active and inactive calls. Rule as the data show it: active = GI50 up to about 1.1 µM and inactive = higher.

Among the test systems are UACC-62; NCI-H226; T47D; UO-31; CAKI-1; MDA-MB-435; HL-60; M14; SN12C; NCI/ADR-RES; SK-MEL-5; MOLT-4; 786-0; LOX IMVI; MDA-MB-231; U-251; OVCAR-4; COLO 205; MDA-N; RPMI-8226.
Assay in all cases: growth of human tumour cells (NCI), 48 h

`N#CC(NCCc1ccccc1)c1ccc(C(C#N)NCCc2ccccc2)cc1` (centres undefined): the GI50 is > 100 µM (inactive) in the test on UACC-62; > 100 µM (inactive) in the test with NCI-H226; > 100 µM (inactive) in the test on T47D; 93.1 µM (inactive) in the test with UO-31; > 100 µM (inactive) with CAKI-1; 33.8 µM (inactive) in the test on MDA-MB-435. Besides, the GI50 in the test on HL-60 is 14.6 µM (inactive); in the test on M14 it was 70.6 µM (inactive); in the test on SN12C, 97.5 µM (inactive); with NCI/ADR-RES it was 24.3 µM (inactive); with SK-MEL-5 it was 32.1 µM (inactive); in the test with MOLT-4, 32.6 µM (inactive). The GI50 is 72.4 µM (inactive) with 786-0; 45.1 µM (inactive) with LOX IMVI; > 100 µM (inactive) in the test on MDA-MB-231; 8.17 µM (inactive) in the test with U-251; > 100 µM (inactive) in the test with OVCAR-4; 48 µM (inactive) in the test with COLO 205.
For `N=C(N)NS(=O)(=O)c1ccc(NNc2c3ccccc3nc3c(C(=O)Nc4ccc(S(=O)(=O)Nc5ncccn5)cc4)cccc23)cc1`, the GI50 is 21.2 µM (inactive) in the test with UACC-62; 39 µM (inactive) in the test with T47D; 22.4 µM (inactive) in the test on UO-31; 37.8 µM (inactive) in the test on CAKI-1; 43.2 µM (inactive) in the test on MDA-MB-435; 38.2 µM (inactive) in the test with HL-60. Further, the GI50 was 20.4 µM (inactive) in the test on M14; 42.2 µM (inactive) in the test on SN12C; > 100 µM (inactive) with NCI/ADR-RES; 49.7 µM (inactive) with MDA-N; 26.6 µM (inactive) with SK-MEL-5; 38.9 µM (inactive) in the test on MOLT-4. The GI50 in the test with 786-0 is 31.6 µM (inactive); with RPMI-8226, 33.3 µM (inactive); in the test with MDA-MB-231 it was 60.1 µM (inactive); in the test with U-251, 43.7 µM (inactive); in the test on OVCAR-4, 29.2 µM (inactive); in the test on COLO 205, 40.5 µM (inactive).
`COc1cc(C2c3cc4c(cc3OC(N3CCOCC3)C2C)OCO4)ccc1O` (centres undefined): the GI50 in the test with UACC-62 was 8.05 µM (inactive); with T47D, 10.3 µM (inactive); with UO-31, 16 µM (inactive); with CAKI-1, 31.2 µM (inactive); in the test on MDA-MB-435, 2.81 µM (inactive); in the test with HL-60 it was 3.72 µM (inactive). The GI50 with M14 was 6.34 µM (inactive); with SN12C it was 40 µM (inactive); in the test on NCI/ADR-RES, 5.96 µM (inactive); in the test on MDA-N, 1.76 µM (inactive); in the test on SK-MEL-5 it was 9.53 µM (inactive); in the test with MOLT-4 it was 6.25 µM (inactive). Further, the GI50 was 18.4 µM (inactive) with 786-0; 11.8 µM (inactive) in the test with LOX IMVI; 4.22 µM (inactive) with RPMI-8226; 14.5 µM (inactive) in the test with U-251; 50.9 µM (inactive) in the test with OVCAR-4; 25.3 µM (inactive) in the test with COLO 205.
For `Fc1ccc(-c2sc(-c3cccs3)cc2Cc2cccs2)cc1`, the GI50 with UACC-62, in the test with NCI-H226, in the test on T47D, in the test on UO-31, with CAKI-1 and in the test on MDA-MB-435 was > 100 µM (inactive) in each case. The GI50 is > 100 µM (inactive) in the test on HL-60; > 100 µM (inactive) in the test on M14; > 100 µM (inactive) with SN12C; > 100 µM (inactive) in the test on NCI/ADR-RES; > 100 µM (inactive) with SK-MEL-5; 31.1 µM (inactive) in the test on MOLT-4. Further, the GI50 in the test with 786-0, in the test on LOX IMVI, in the test with MDA-MB-231, in the test with U-251, with OVCAR-4 and with COLO 205 was > 100 µM (inactive) each time.
Consider `C#CC1(OC(C)=O)CCC2C3CC=C4C=C(OC(C)=O)CCC4(C)C3CCC21C` (centres undefined), for which the GI50 was 18.3 µM (inactive) with UACC-62; 24.8 µM (inactive) with NCI-H226; 61.5 µM (inactive) in the test on T47D; 23.1 µM (inactive) with UO-31; 36.5 µM (inactive) in the test on CAKI-1; 20.1 µM (inactive) in the test on MDA-MB-435. Besides, the GI50 was 28.6 µM (inactive) in the test with HL-60; 26.7 µM (inactive) in the test with M14; 19.5 µM (inactive) in the test with SN12C; 26.9 µM (inactive) with NCI/ADR-RES; 18.3 µM (inactive) in the test with SK-MEL-5; 13.2 µM (inactive) in the test on MOLT-4. In addition, the GI50 is 30.3 µM (inactive) in the test on 786-0; 22.7 µM (inactive) in the test on LOX IMVI; < 0.01 µM (active) with RPMI-8226; 24.2 µM (inactive) in the test on MDA-MB-231; 19.5 µM (inactive) with U-251; 19.4 µM (inactive) with OVCAR-4. Besides, the GI50 in the test with COLO 205 is 16.2 µM (inactive).
For the molecule `COc1ccc2c(c1)[n+]([O-])c1cc(C#N)ccc1[n+]2[O-]`, the GI50 in the test on UACC-62 was 2.94 µM (inactive); in the test with NCI-H226, 3.78 µM (inactive); with T47D, 11.7 µM (inactive); with UO-31, 5.31 µM (inactive); in the test on CAKI-1, 4.09 µM (inactive); in the test with MDA-MB-435 it was 2.25 µM (inactive). For the same molecule, the GI50 with HL-60 is 4.63 µM (inactive); with M14, 0.33 µM (active); in the test with SN12C it was 3.17 µM (inactive); with NCI/ADR-RES, 15.5 µM (inactive); in the test on SK-MEL-5, 0.893 µM (active); in the test on MOLT-4 it was 0.316 µM (active). Also, the GI50 was 13.6 µM (inactive) with 786-0; 3.3 µM (inactive) in the test on LOX IMVI; 12.5 µM (inactive) with MDA-MB-231; 3.72 µM (inactive) with U-251; 12.4 µM (inactive) with OVCAR-4; 0.586 µM (active) in the test with COLO 205.
In the case of `CC1=NNC(=O)C1C1C(=O)NN=C(c2c[nH]c3ccccc23)C1Br` (centres undefined), the GI50 with UACC-62 was 83.4 µM (inactive); in the test on NCI-H226, 35 µM (inactive); in the test with T47D it was 42.1 µM (inactive); with UO-31, 48 µM (inactive); with CAKI-1 it was 62.4 µM (inactive); in the test with MDA-MB-435, 48.6 µM (inactive). Also, the GI50 is 37.3 µM (inactive) with HL-60; 23.2 µM (inactive) in the test with M14; > 100 µM (inactive) in the test with SN12C; 47.5 µM (inactive) in the test with NCI/ADR-RES; 59.8 µM (inactive) in the test on MDA-N; 37.8 µM (inactive) in the test on SK-MEL-5. Besides, the GI50 in the test with MOLT-4 was 25.4 µM (inactive); in the test on 786-0, > 100 µM (inactive); in the test with LOX IMVI, 62.1 µM (inactive); in the test on RPMI-8226, 40.7 µM (inactive); in the test with MDA-MB-231, > 100 µM (inactive); with U-251, 38.3 µM (inactive). In addition, the GI50 in the test with COLO 205 was 33.8 µM (inactive).
Regarding `COC(=O)/C=C(/OC)[C@H](C)[C@H](/C=C/c1csc(-c2csc(C(C)C)n2)n1)OC`, the GI50 is 0.33 µM (active) in the test on UACC-62; 4.19 µM (inactive) in the test on NCI-H226; 1.4 µM (inactive) in the test with T47D; 0.703 µM (active) in the test on UO-31; 7.08 µM (inactive) in the test on CAKI-1; 0.925 µM (active) with MDA-MB-435. For the same molecule, the GI50 in the test with HL-60 was 2.51 µM (inactive); in the test with M14, 1.44 µM (inactive); in the test on SN12C, 10.3 µM (inactive); in the test with NCI/ADR-RES it was 0.841 µM (active); with SK-MEL-5, < 0.0177 µM (active); in the test on MOLT-4 it was 0.0703 µM (active). In addition, the GI50 is 7.45 µM (inactive) in the test on 786-0; 0.0838 µM (active) in the test on LOX IMVI; 0.373 µM (active) in the test on RPMI-8226; 4.69 µM (inactive) in the test on MDA-MB-231; 0.149 µM (active) in the test with U-251; 0.416 µM (active) in the test with OVCAR-4. The GI50 in the test on COLO 205 is 3.38 µM (inactive).
Turning to `N#Cc1ccc(OCc2ccc3nc(-c4ccccc4)c(Cl)nc3c2)cc1`, the GI50 in the test on UACC-62, in the test on T47D, with UO-31, in the test with CAKI-1, in the test with MDA-MB-435 and with HL-60 was > 100 µM (inactive) each time. Further, the GI50 with M14, in the test on SN12C, in the test on NCI/ADR-RES, with MDA-N, with SK-MEL-5 and with MOLT-4 was > 100 µM (inactive) each time. Also, the GI50 with 786-0 was 54 µM (inactive); in the test with LOX IMVI, > 100 µM (inactive); in the test on RPMI-8226 it was > 100 µM (inactive); with MDA-MB-231, > 100 µM (inactive); with U-251, 72.1 µM (inactive); in the test on OVCAR-4, > 100 µM (inactive). For the same molecule, in the test on COLO 205, the GI50 is > 100 µM (inactive).
As to `CCN(CC)CCCC(C)Nc1ccnc2cc3ccccc3cc12` (centres undefined), the GI50 with UACC-62 is 17.2 µM (inactive); in the test with NCI-H226 it was 20.9 µM (inactive); with T47D, 12.8 µM (inactive); in the test on UO-31, 6.32 µM (inactive); with CAKI-1, 9.2 µM (inactive); in the test on MDA-MB-435 it was 7.85 µM (inactive). Moreover, the GI50 is 10.7 µM (inactive) in the test with HL-60; 14.6 µM (inactive) with M14; 14.2 µM (inactive) in the test on SN12C; 10.1 µM (inactive) in the test on NCI/ADR-RES; 19.8 µM (inactive) with SK-MEL-5; 4.09 µM (inactive) in the test on MOLT-4. In addition, the GI50 in the test on 786-0 was 8.41 µM (inactive); in the test with LOX IMVI it was 4.91 µM (inactive); in the test with RPMI-8226, 13.5 µM (inactive); with MDA-MB-231, 8.57 µM (inactive); with U-251 it was 5.75 µM (inactive); in the test on OVCAR-4, 3.24 µM (inactive). In addition, the GI50 in the test with COLO 205 was 3.3 µM (inactive).
Take `CCOC(=O)c1csc(C(CSCc2ccc(OC)cc2)N2C(=O)c3ccccc3C2=O)n1` (centres undefined): the GI50 with UACC-62 was 63.5 µM (inactive); in the test with NCI-H226, > 100 µM (inactive); in the test on T47D it was 69.2 µM (inactive); in the test on UO-31, > 100 µM (inactive); with CAKI-1 it was > 100 µM (inactive); with MDA-MB-435 it was 54.8 µM (inactive). Further, the GI50 was 33.7 µM (inactive) in the test with HL-60; > 100 µM (inactive) in the test on M14; > 100 µM (inactive) with SN12C; > 100 µM (inactive) in the test with NCI/ADR-RES; > 100 µM (inactive) with SK-MEL-5; 31.5 µM (inactive) in the test with MOLT-4. Also, the GI50 with 786-0 was 88.1 µM (inactive); in the test with LOX IMVI, 37.6 µM (inactive); in the test with RPMI-8226, 38 µM (inactive); with MDA-MB-231 it was > 100 µM (inactive); with U-251 it was > 100 µM (inactive); with OVCAR-4 it was > 100 µM (inactive). Further, the GI50 with COLO 205 was > 100 µM (inactive).
